In patent US20240358693A1, “METHODS OF TREATING PAIN” (Aisa Pharma, Inc., priority 2023, published 2024):

Test system: participants with SSc-RP
Experiment: Average severity of weekly RP attacks (VAS 0-10 cm scale)
Assay type: in vivo, human
Description: The absolute change in average severity of weekly RP attacks (VAS 0-10 cm scale) from baseline to the end of each Dosing Period was and will be a secondary outcome variable. The sponsor-developed participant-informed diary will be used to record data. Average severity of weekly RP attacks is defined as the total severity scores of RP attacks divided by total number of RP attacks within the last 7 days of each dosing period. Total severity scores of RP attacks during the last 7 days of screening period divided by the total number of RP attacks will be used as baseline for the analysis of all periods. The variable will be calculated similar to frequency data as before.

[1] = Cilnidipine 10 mg, n=1, Excluding Outliers, ITT Population - Part A
[2] = Cilnidipine 10 mg, n=1, ITT Population - Part A
[3] = Cilnidipine 10 mg, n=1, by Baseline RCS, first subgroup, ITT Population - Part A
[4] = Cilnidipine 10 mg, Excluding Outliers, ITT Population - Part A
[5] = Cilnidipine 10 mg, Excluding Outliers, by Baseline RCS, first subgroup, ITT Population - Part A
[6] = Cilnidipine 10 mg, ITT Population - Part A
[7] = Cilnidipine 10 mg, first Baseline RCS subgroup block (not named), ITT Part A
[8] = Cilnidipine 10 mg, first Baseline RCS subgroup block (not named), ITT Part A, score 0-10
[9] = Cilnidipine 20 mg, n=2, Excluding Outliers, ITT Population - Part A
[10] = Cilnidipine 20 mg, n=2, ITT Population - Part A
[11] = Cilnidipine 20 mg, n=2, by Baseline RCS, first subgroup, ITT Population - Part A
[12] = Cilnidipine 20 mg, Excluding Outliers, ITT Population - Part A
[13] = Cilnidipine 20 mg, Excluding Outliers, by Baseline RCS, first subgroup, ITT Population - Part A

COCCOC(=O)C1=C(C)NC(C)=C(C(=O)OC/C=C/c2ccccc2)C1c1cccc([N+](=O)[O-])c1 (stereo not shown) [Cilnidipine, cilnidipine]
Average Severity (0-10) of Weekly Symptomatic RP Attacks, Mean [1]: 3.77
Average Severity (0-10) of Weekly Symptomatic RP Attacks, Median [1]: 3.77
Average Severity of Weekly Symptomatic RP Attacks, Change from Baseline, Mean [1]: 0.28
Average Severity of Weekly Symptomatic RP Attacks, Change from Baseline, Median [1]: 0.28
Average Severity of Weekly Symptomatic RP Attacks, Percent Change from Baseline, Mean [1]: 8.05%
Average Severity of Weekly Symptomatic RP Attacks, Percent Change from Baseline, Median [1]: 8.05%
Average Severity (0-10) of Weekly Symptomatic RP Attacks, Mean [2]: 3.77
Average Severity (0-10) of Weekly Symptomatic RP Attacks, Median [2]: 3.77
Average Severity of Weekly Symptomatic RP Attacks, Change from Baseline, Mean [2]: 0.28
Average Severity of Weekly Symptomatic RP Attacks, Change from Baseline, Median [2]: 0.28
Average Severity of Weekly Symptomatic RP Attacks, Percent Change from Baseline, Mean [2]: 8.05%
Average Severity of Weekly Symptomatic RP Attacks, Percent Change from Baseline, Median [2]: 8.05%
Average Severity (0-10) of Weekly Symptomatic RP Attacks, Mean [3]: 3.77
Average Severity (0-10) of Weekly Symptomatic RP Attacks, Median [3]: 3.77
Average Severity of Weekly Symptomatic RP Attacks, Change from Baseline, Mean [3]: 0.28
Average Severity of Weekly Symptomatic RP Attacks, Change from Baseline, Median [3]: 0.28
Average Severity of Weekly Symptomatic RP Attacks, Percent Change from Baseline, Mean [3]: 8.05%
Average Severity of Weekly Symptomatic RP Attacks, Percent Change from Baseline, Median [3]: 8.05%
Average Severity of Weekly RP Attacks (All Attacks), Change from Baseline, Mean [4]: 0.02
Average Severity of Weekly RP Attacks (All Attacks), Change from Baseline, Median [4]: 0.02
Average Severity of Weekly RP Attacks (All Attacks), Mean [4]: 3.05
Average Severity of Weekly RP Attacks (All Attacks), Median [4]: 3.05
Average Severity of Weekly RP Attacks (All Attacks), Percent Change from Baseline, Mean [4]: 0.55%
Average Severity of Weekly RP Attacks (All Attacks), Percent Change from Baseline, Median [4]: 0.55%
Average Severity of Weekly Symptomatic RP Attacks (Mean) [5]: 3.77
Average Severity of Weekly Symptomatic RP Attacks (Median) [5]: 3.77
Average Severity of Weekly Symptomatic RP Attacks, Change from Baseline, Mean [5]: 0.28
Average Severity of Weekly Symptomatic RP Attacks, Change from Baseline, Median [5]: 0.28
Average Severity of Weekly Symptomatic RP Attacks, Percent Change from Baseline, Mean [5]: 8.05%
Average Severity of Weekly Symptomatic RP Attacks, Percent Change from Baseline, Median [5]: 8.05%
Average Severity of Weekly RP Attacks (All Attacks), Change from Baseline, Mean [6]: 0.02
Average Severity of Weekly RP Attacks (All Attacks), Change from Baseline, Median [6]: 0.02
Average Severity of Weekly RP Attacks (All Attacks), Mean [6]: 3.05
Average Severity of Weekly RP Attacks (All Attacks), Median [6]: 3.05
Average Severity of Weekly RP Attacks (All Attacks), Percent Change from Baseline, Mean [6]: 0.55%
Average Severity of Weekly RP Attacks (All Attacks), Percent Change from Baseline, Median [6]: 0.55%
Average Severity of Weekly RP Attacks (All Attacks), Percent Change from Baseline, Mean [7]: 0.55%
Average Severity of Weekly RP Attacks (All Attacks), Percent Change from Baseline, Median [7]: 0.55%
Average Severity of Weekly RP Attacks (All Attacks), Change from Baseline, Mean [8]: 0.02
Average Severity of Weekly RP Attacks (All Attacks), Change from Baseline, Median [8]: 0.02
Average Severity of Weekly RP Attacks (All Attacks), Mean [8]: 3.05
Average Severity of Weekly RP Attacks (All Attacks), Median [8]: 3.05
Average Severity (0-10) of Weekly Symptomatic RP Attacks, Mean [9]: 2.30
Average Severity (0-10) of Weekly Symptomatic RP Attacks, Median [9]: 2.30
Average Severity of Weekly Symptomatic RP Attacks, Change from Baseline, Mean [9]: −1.44
Average Severity of Weekly Symptomatic RP Attacks, Change from Baseline, Median [9]: −1.44
Average Severity of Weekly Symptomatic RP Attacks, Percent Change from Baseline, Mean [9]: −32.85%
Average Severity of Weekly Symptomatic RP Attacks, Percent Change from Baseline, Median [9]: −32.85%
Average Severity (0-10) of Weekly Symptomatic RP Attacks, Mean [10]: 2.30
Average Severity (0-10) of Weekly Symptomatic RP Attacks, Median [10]: 2.30
Average Severity of Weekly Symptomatic RP Attacks, Change from Baseline, Mean [10]: −1.44
Average Severity of Weekly Symptomatic RP Attacks, Change from Baseline, Median [10]: −1.44
Average Severity of Weekly Symptomatic RP Attacks, Percent Change from Baseline, Mean [10]: −32.85%
Average Severity of Weekly Symptomatic RP Attacks, Percent Change from Baseline, Median [10]: −32.85%
Average Severity (0-10) of Weekly Symptomatic RP Attacks, Mean [11]: 2.30
Average Severity (0-10) of Weekly Symptomatic RP Attacks, Median [11]: 2.30
Average Severity of Weekly Symptomatic RP Attacks, Change from Baseline, Mean [11]: −1.44
Average Severity of Weekly Symptomatic RP Attacks, Change from Baseline, Median [11]: −1.44
Average Severity of Weekly Symptomatic RP Attacks, Percent Change from Baseline, Mean [11]: −32.85%
Average Severity of Weekly Symptomatic RP Attacks, Percent Change from Baseline, Median [11]: −32.85%
Average Severity of Weekly RP Attacks (All Attacks), Change from Baseline, Mean [12]: −1.07
Average Severity of Weekly RP Attacks (All Attacks), Change from Baseline, Median [12]: −1.07
Average Severity of Weekly RP Attacks (All Attacks), Mean [12]: 2.30
Average Severity of Weekly RP Attacks (All Attacks), Median [12]: 2.30
Average Severity of Weekly RP Attacks (All Attacks), Percent Change from Baseline, Mean [12]: −27.26%
Average Severity of Weekly RP Attacks (All Attacks), Percent Change from Baseline, Median [12]: −27.26%
Average Severity of Weekly Symptomatic RP Attacks (Mean) [13]: 2.30
Average Severity of Weekly Symptomatic RP Attacks (Median) [13]: 2.30
Average Severity of Weekly Symptomatic RP Attacks, Change from Baseline, Mean [13]: −1.44
Average Severity of Weekly Symptomatic RP Attacks, Change from Baseline, Median [13]: −1.44
Average Severity of Weekly Symptomatic RP Attacks, Percent Change from Baseline, Mean [13]: −32.85%
Average Severity of Weekly Symptomatic RP Attacks, Percent Change from Baseline, Median [13]: −32.85%
Average Severity of Weekly RP Attacks (All Attacks), Change from Baseline, Mean (Cilnidipine 20 mg, ITT Population - Part A): −1.07
